Reference: US10154957B2, “Microneedle device having a peptide therapeutic agent and an amino acid and methods of making and using the same” (3M INNOVATIVE PROPERTIES COMPANY, priority 2011, dated 2018)

Test: Percent purity of PTHrP analogue (10 mg/mL formulations) in coating on arrays stored at 25° C./60% RH or 5° C./ambient RH (HPLC)
Type: physicochemical
Experimental: The protein or polypeptide content in the formulation coated on the microneedle arrays was determined using an Agilent 1100 HPLC system (Agilent Technologies, Wilmington, Del.) equipped with a binary pump, well-plated thermostated autosampler, thermostated column compartment, and a diode array UV detector. A Zorbax 300SB-C8 column (Agilent Technologies, Wilmington, Del.) having a 5 μm particle size and 2.1×150 mm inner diameter was used for the separations. The column was maintained at 50° C. The mobile phase consisted of two eluents. Eluent A was 0.1% TFA (trifluoroacetic acid) in water and eluent B was 0.1% TFA in acetonitrile (Spectrum Chemical, New Brunswick, N.J.). A linear gradient from 80/20 to 50/50 (A/B) was applied over 30 minutes. The flow rate was 0.4 mL/minute and the UV detection wavelength was set at 214 nm. The total run time was 34 minutes and the sample injection volume was 15 μL.
A sample formulation containing 10 mg/mL of [Glu^22,25,Leu^23,28,31,Aib^29,Lys^26,30]hPTHrP(1-34)NH2 and 10 mg/mL of L-histidine monohydrochloride (His-HCl) in PBS was prepared. A control formulation was also prepared containing 10 mg/mL of [Glu^22,25,Leu^23,28,31,Aib^29,Lys^26,30]hPTHrP(1-34)NH2 in PBS. […] Microneedle arrays were coated with either the sample or the control formulation. The coating was applied by dropwise addition of 40 μL of the formulation to the portion of the array defined by the octagon shaped pattern of microneedles. The coated arrays (both sample and control formulation coated) were dried in an oven at 35° C. for 1.5 hours followed by 30° C. for 15 hours.
After drying, the coated arrays were placed in a storage chamber that was maintained at either 25° C./60% RH or 5° C./ambient RH. The [Glu^22,25,Leu^23,28,31,Aib^29,Lys^26,30]hPTHrP(1-34)NH2 content of the coated arrays was determined following storage in the chamber for 7 days, 14 days, 28 days, and 2 months. The initial [Glu^22,25,Leu^23,28,31,Aib^29,Lys^26,30]hPTHrP(1-34)NH2 content was also determined using freshly coated arrays (both sample and control formulation coated). The arrays used to determine initial content were stored in a refrigerator at about 4° C. and analyzed within one day of being prepared. At the designated time point, an array was taken from the chamber and washed with PBS (3.5 mL) to remove the coating from the array. An aliquot of the resulting wash solution was analyzed for [Glu^22,25,Leu^23,28,31,Aib^29,Lys^26,30]hPTHrP(1-34)NH2 content using the HPLC method described above. The results were quantified against an external standard of [Glu^22,25,Leu^23,28,31,Aib^29,Lys^26,30]hPTHrP(1-34)NH2. At each time point, the percent purity of [Glu^22,25,Leu^23,28,31,Aib^29,Lys^26,30]hPTHrP(1-34)NH2 in the coating was determined by measuring the peak area for [Glu^22,25,Leu^23,28,31,Aib^29,Lys^26,30]hPTHrP(1-34)NH2 in the selected coating and dividing it by the total peak area measured for all [Glu^22,25,Leu^23,28,31,Aib^29,Lys^26,30]hPTHrP(1-34)NH2 related peaks.
The same procedure as described in Example 10 was used with the exception that the sample formulation contained 10 mg/mL of L-arginine hydrochloride, instead of L-histidine monohydrochloride.

Percent Purity of [Glu^22,25, Leu^23,28,31, Aib^29, Lys^26,30]hPTHrP(1-34)NH2 (Amino Acid L-Arginine (Arg-HCl 10 mg/mL), peptide in PBS, Storage Condition 5° C./ambient RH, 0 day): 99.0%
Percent Purity of [Glu^22,25, Leu^23,28,31, Aib^29, Lys^26,30]hPTHrP(1-34)NH2 (Amino Acid L-Arginine (Arg-HCl 10 mg/mL), peptide in PBS, Storage Condition 5° C./ambient RH, 2 months): 98.4%
Percent Purity of [Glu^22,25, Leu^23,28,31, Aib^29, Lys^26,30]hPTHrP(1-34)NH2 (Amino Acid L-Arginine (Arg-HCl 10 mg/mL), peptide in PBS, Storage Condition 5° C./ambient RH, 7 day): 98.8%
Percent Purity of [Glu^22,25, Leu^23,28,31, Aib^29, Lys^26,30]hPTHrP(1-34)NH2 (Amino Acid L-Arginine (Arg-HCl 10 mg/mL), peptide in PBS, Storage Condition 5° C./ambient RH, 14 day): 98.8%
Percent Purity of [Glu^22,25, Leu^23,28,31, Aib^29, Lys^26,30]hPTHrP(1-34)NH2 (Amino Acid L-Arginine (Arg-HCl 10 mg/mL), peptide in PBS, Storage Condition 5° C./ambient RH, 28 day): 98.8%
Percent Purity of [Glu^22,25, Leu^23,28,31, Aib^29, Lys^26,30]hPTHrP(1-34)NH2 (Amino Acid L-Arginine (Arg-HCl 10 mg/mL), peptide in PBS, Storage Condition 25° C./60% RH, 0 day): 99.0%
Percent Purity of [Glu^22,25, Leu^23,28,31, Aib^29, Lys^26,30]hPTHrP(1-34)NH2 (Amino Acid L-Arginine (Arg-HCl 10 mg/mL), peptide in PBS, Storage Condition 25° C./60% RH, 2 months): 97.8%
Percent Purity of [Glu^22,25, Leu^23,28,31, Aib^29, Lys^26,30]hPTHrP(1-34)NH2 (Amino Acid L-Arginine (Arg-HCl 10 mg/mL), peptide in PBS, Storage Condition 25° C./60% RH, 7 day): 98.8%
Percent Purity of [Glu^22,25, Leu^23,28,31, Aib^29, Lys^26,30]hPTHrP(1-34)NH2 (Amino Acid L-Arginine (Arg-HCl 10 mg/mL), peptide in PBS, Storage Condition 25° C./60% RH, 14 day): 98.6%
Percent Purity of [Glu^22,25, Leu^23,28,31, Aib^29, Lys^26,30]hPTHrP(1-34)NH2 (Amino Acid L-Arginine (Arg-HCl 10 mg/mL), peptide in PBS, Storage Condition 25° C./60% RH, 28 day): 98.7%
Percent Purity of [Glu^22,25, Leu^23,28,31, Aib^29, Lys^26,30]hPTHrP(1-34)NH2 (Amino Acid L-Histidine (His-HCl 10 mg/mL), peptide 10 mg/mL in PBS, Storage Condition 5° C./ambient RH, 2 months): 98.7%
Percent Purity of [Glu^22,25, Leu^23,28,31, Aib^29, Lys^26,30]hPTHrP(1-34)NH2 (Amino Acid L-Histidine (His-HCl 10 mg/mL), peptide 10 mg/mL in PBS, Storage Condition 5° C./ambient RH, Day 7): 98.9%
Percent Purity of [Glu^22,25, Leu^23,28,31, Aib^29, Lys^26,30]hPTHrP(1-34)NH2 (Amino Acid L-Histidine (His-HCl 10 mg/mL), peptide 10 mg/mL in PBS, Storage Condition 5° C./ambient RH, Day 14): 98.9%
Percent Purity of [Glu^22,25, Leu^23,28,31, Aib^29, Lys^26,30]hPTHrP(1-34)NH2 (Amino Acid L-Histidine (His-HCl 10 mg/mL), peptide 10 mg/mL in PBS, Storage Condition 5° C./ambient RH, Day 28): 98.9%
Percent Purity of [Glu^22,25, Leu^23,28,31, Aib^29, Lys^26,30]hPTHrP(1-34)NH2 (Amino Acid L-Histidine (His-HCl 10 mg/mL), peptide 10 mg/mL in PBS, Storage Condition 5° C./ambient RH, Initial): 99.0%
Percent Purity of [Glu^22,25, Leu^23,28,31, Aib^29, Lys^26,30]hPTHrP(1-34)NH2 (Amino Acid L-Histidine (His-HCl 10 mg/mL), peptide 10 mg/mL in PBS, Storage Condition 25° C./60% RH, 2 months): 98.6%
Percent Purity of [Glu^22,25, Leu^23,28,31, Aib^29, Lys^26,30]hPTHrP(1-34)NH2 (Amino Acid L-Histidine (His-HCl 10 mg/mL), peptide 10 mg/mL in PBS, Storage Condition 25° C./60% RH, Day 7): 98.9%
Percent Purity of [Glu^22,25, Leu^23,28,31, Aib^29, Lys^26,30]hPTHrP(1-34)NH2 (Amino Acid L-Histidine (His-HCl 10 mg/mL), peptide 10 mg/mL in PBS, Storage Condition 25° C./60% RH, Day 14): 98.8%
Percent Purity of [Glu^22,25, Leu^23,28,31, Aib^29, Lys^26,30]hPTHrP(1-34)NH2 (Amino Acid L-Histidine (His-HCl 10 mg/mL), peptide 10 mg/mL in PBS, Storage Condition 25° C./60% RH, Day 28): 98.9%
Percent Purity of [Glu^22,25, Leu^23,28,31, Aib^29, Lys^26,30]hPTHrP(1-34)NH2 (Amino Acid L-Histidine (His-HCl 10 mg/mL), peptide 10 mg/mL in PBS, Storage Condition 25° C./60% RH, Initial): 99.0%
Percent Purity of [Glu^22,25, Leu^23,28,31, Aib^29, Lys^26,30]hPTHrP(1-34)NH2 (Amino Acid None (control), peptide 10 mg/mL in PBS, Storage Condition 5° C./ambient RH, 2 months): 97.3%
Percent Purity of [Glu^22,25, Leu^23,28,31, Aib^29, Lys^26,30]hPTHrP(1-34)NH2 (Amino Acid None (control), peptide 10 mg/mL in PBS, Storage Condition 5° C./ambient RH, Day 7): 98.2%
Percent Purity of [Glu^22,25, Leu^23,28,31, Aib^29, Lys^26,30]hPTHrP(1-34)NH2 (Amino Acid None (control), peptide 10 mg/mL in PBS, Storage Condition 5° C./ambient RH, Day 14): 98.4%
Percent Purity of [Glu^22,25, Leu^23,28,31, Aib^29, Lys^26,30]hPTHrP(1-34)NH2 (Amino Acid None (control), peptide 10 mg/mL in PBS, Storage Condition 5° C./ambient RH, Day 28): 97.6%
Percent Purity of [Glu^22,25, Leu^23,28,31, Aib^29, Lys^26,30]hPTHrP(1-34)NH2 (Amino Acid None (control), peptide 10 mg/mL in PBS, Storage Condition 5° C./ambient RH, Initial): 98.7%
Percent Purity of [Glu^22,25, Leu^23,28,31, Aib^29, Lys^26,30]hPTHrP(1-34)NH2 (Amino Acid None (control), peptide 10 mg/mL in PBS, Storage Condition 25° C./60% RH, 2 months): 96.3%
Percent Purity of [Glu^22,25, Leu^23,28,31, Aib^29, Lys^26,30]hPTHrP(1-34)NH2 (Amino Acid None (control), peptide 10 mg/mL in PBS, Storage Condition 25° C./60% RH, Day 7): 98.0%
Percent Purity of [Glu^22,25, Leu^23,28,31, Aib^29, Lys^26,30]hPTHrP(1-34)NH2 (Amino Acid None (control), peptide 10 mg/mL in PBS, Storage Condition 25° C./60% RH, Day 14): 97.7%
Percent Purity of [Glu^22,25, Leu^23,28,31, Aib^29, Lys^26,30]hPTHrP(1-34)NH2 (Amino Acid None (control), peptide 10 mg/mL in PBS, Storage Condition 25° C./60% RH, Day 28): 97.5%
Percent Purity of [Glu^22,25, Leu^23,28,31, Aib^29, Lys^26,30]hPTHrP(1-34)NH2 (Amino Acid None (control), peptide 10 mg/mL in PBS, Storage Condition 25° C./60% RH, Initial): 98.7%
Substance: [Glu^22,25,Leu^23,28,31,Aib^29,Lys^26,30]hPTHrP(1-34)NH2
